# According to ChEMBL document CHEMBL4052765, “Synthesis and antibacterial evaluation of novel 11-O-carbamoyl clarithromycin ketolides” (2017):
# Legend:
# Format in all cases: functional
# Streptococcus pneumoniae [1] = experiment: Antibacterial activity against erythromycin-resistant Streptococcus pneumoniae AB11 harboring harboring mef and erm gene after 24 h by NCCLS broth microdilution method; settings: AB11, 24 h
# Streptococcus pyogenes [2] = experiment: Antibacterial activity against erythromycin-resistant Streptococcus pyogenes R1 after 24 h by NCCLS broth microdilution method; settings: R1, 24 h
# Streptococcus pneumoniae [3] = experiment: Antibacterial activity against erythromycin-resistant Streptococcus pneumoniae A22072 harboring mef gene after 24 h by NCCLS broth microdilution method; settings: A22072, 24 h
# Streptococcus pneumoniae [4] = experiment: Antibacterial activity against erythromycin-resistant Streptococcus pneumoniae B1 harboring erm gene after 24 h by NCCLS broth microdilution method; settings: B1, 24 h
# Staphylococcus aureus [5] = experiment: Antibacterial activity against […] Staphylococcus aureus ATCC 29213 after 24 h by NCCLS broth microdilution method; settings: ATCC 29213, 24 h
# Bacillus subtilis = experiment: Antibacterial activity against penicillin-susceptible Bacillus subtilis ATCC 9372 after 24 h by NCCLS broth microdilution method; settings: ATCC 9372, 24 h
# Pseudomonas aeruginosa = experiment: Antibacterial activity against penicillin-susceptible Pseudomonas aeruginosa ATCC 27853 after 24 h by NCCLS broth microdilution method; settings: ATCC 27853, 24 h
# Streptococcus pyogenes [6] = experiment: Antibacterial activity against erythromycin-susceptible Streptococcus pyogenes after 24 h by NCCLS broth microdilution method
# Escherichia coli = experiment: Antibacterial activity against penicillin-susceptible Escherichia coli ATCC 25922 after 24 h by NCCLS broth microdilution method; settings: ATCC 25922, 24 h
# Staphylococcus aureus [7] = experiment: Antibacterial activity against erythromycin-susceptible Staphylococcus aureus ATCC 25923 after 24 h by NCCLS broth microdilution method; settings: ATCC 25923, 24 h
Structure (SMILES),MIC (Streptococcus pneumoniae [1]),MIC (Streptococcus pyogenes [2]),MIC (Streptococcus pneumoniae [3]),MIC (Streptococcus pneumoniae [4]),MIC (Staphylococcus aureus [5]),MIC (Bacillus subtilis),MIC (Pseudomonas aeruginosa),MIC (Streptococcus pyogenes [6]),MIC (Escherichia coli),MIC (Staphylococcus aureus [7])
CC[C@H]1OC(=O)[C@H](C)C(=O)[C@H](C)[C@@H](O[C@@H]2O[C@H](C)C[C@H](N(C)C)[C@H]2O)[C@](C)(OC)C[C@@H](C)C(=O)[C@H](C)[C@@H](OC(=O)NCCNC(=O)/C=C/c2ccc(O)cc2)[C@]1(C)O,128 µg/mL,> 128 µg/mL,4 µg/mL,128 µg/mL,32 µg/mL,8 µg/mL,128 µg/mL,4 µg/mL,> 128 µg/mL,32 µg/mL
CC[C@H]1OC(=O)[C@H](C)C(=O)[C@H](C)[C@@H](O[C@@H]2O[C@H](C)C[C@H](N(C)C)[C@H]2O)[C@](C)(OC)C[C@@H](C)C(=O)[C@H](C)[C@@H](OC(=O)NCCNC(=O)/C=C/c2ccc(F)cc2)[C@]1(C)O,64 µg/mL,> 128 µg/mL,4 µg/mL,128 µg/mL,128 µg/mL,8 µg/mL,> 128 µg/mL,2 µg/mL,> 128 µg/mL,32 µg/mL
CC[C@H]1OC(=O)[C@H](C)C(=O)[C@H](C)[C@@H](O[C@@H]2O[C@H](C)C[C@H](N(C)C)[C@H]2O)[C@](C)(OC)C[C@@H](C)C(=O)[C@H](C)[C@@H](OC(=O)NCCNC(=O)/C=C/c2ccc(Br)cc2)[C@]1(C)O,128 µg/mL,> 128 µg/mL,2 µg/mL,128 µg/mL,64 µg/mL,4 µg/mL,> 128 µg/mL,2 µg/mL,> 128 µg/mL,32 µg/mL
CC[C@H]1OC(=O)[C@H](C)C(=O)[C@H](C)[C@@H](O[C@@H]2O[C@H](C)C[C@H](N(C)C)[C@H]2O)[C@](C)(OC)C[C@@H](C)C(=O)[C@H](C)[C@@H](OC(=O)NCCNC(=O)c2ccc(C(C)(C)C)cc2)[C@]1(C)O,128 µg/mL,128 µg/mL,4 µg/mL,128 µg/mL,128 µg/mL,4 µg/mL,> 128 µg/mL,16 µg/mL,> 128 µg/mL,128 µg/mL
CC[C@H]1OC(=O)[C@H](C)C(=O)[C@H](C)[C@@H](O[C@@H]2O[C@H](C)C[C@H](N(C)C)[C@H]2O)[C@](C)(OC)C[C@@H](C)C(=O)[C@H](C)[C@@H](OC(=O)NCCNC(=O)/C=C/c2ccc([N+](=O)[O-])cc2)[C@]1(C)O,128 µg/mL,> 128 µg/mL,1 µg/mL,128 µg/mL,128 µg/mL,4 µg/mL,128 µg/mL,1 µg/mL,> 128 µg/mL,32 µg/mL
CC[C@H]1OC(=O)[C@H](C)C(=O)[C@H](C)[C@@H](O[C@@H]2O[C@H](C)C[C@H](N(C)C)[C@H]2O)[C@](C)(OC)C[C@@H](C)C(=O)[C@H](C)[C@@H](OC(=O)NCCNC(=O)/C=C/c2ccccc2)[C@]1(C)O,64 µg/mL,> 128 µg/mL,4 µg/mL,128 µg/mL,128 µg/mL,8 µg/mL,> 128 µg/mL,4 µg/mL,> 128 µg/mL,32 µg/mL
CC[C@H]1OC(=O)[C@H](C)C(=O)[C@H](C)[C@@H](O[C@@H]2O[C@H](C)C[C@H](N(C)C)[C@H]2O)[C@](C)(OC)C[C@@H](C)C(=O)[C@H](C)[C@@H](OC(=O)NCCNC(=O)/C=C/c2ccc(Cl)cc2Cl)[C@]1(C)O,128 µg/mL,64 µg/mL,2 µg/mL,128 µg/mL,32 µg/mL,2 µg/mL,> 128 µg/mL,2 µg/mL,128 µg/mL,8 µg/mL
CC[C@H]1OC(=O)[C@H](C)C(=O)[C@H](C)[C@@H](O[C@@H]2O[C@H](C)C[C@H](N(C)C)[C@H]2O)[C@](C)(OC)C[C@@H](C)C(=O)[C@H](C)[C@@H](OC(=O)NCCNC(=O)c2ccc(OC)cc2)[C@]1(C)O,64 µg/mL,> 128 µg/mL,1 µg/mL,128 µg/mL,128 µg/mL,4 µg/mL,> 128 µg/mL,2 µg/mL,> 128 µg/mL,32 µg/mL
CC[C@H]1OC(=O)[C@H](C)C(=O)[C@H](C)[C@@H](O[C@@H]2O[C@H](C)C[C@H](N(C)C)[C@H]2O)[C@](C)(OC)C[C@@H](C)C(=O)[C@H](C)[C@@H](OC(=O)NCCNC(=O)c2cccc(C)c2)[C@]1(C)O,64 µg/mL,> 128 µg/mL,8 µg/mL,128 µg/mL,128 µg/mL,8 µg/mL,> 128 µg/mL,4 µg/mL,> 128 µg/mL,32 µg/mL
CC[C@H]1OC(=O)[C@H](C)C(=O)[C@H](C)[C@@H](O[C@@H]2O[C@H](C)C[C@H](N(C)C)[C@H]2O)[C@](C)(OC)C[C@@H](C)C(=O)[C@H](C)[C@@H](OC(=O)NCCNC(=O)c2ccc(Br)cc2)[C@]1(C)O,64 µg/mL,> 128 µg/mL,1 µg/mL,128 µg/mL,128 µg/mL,1 µg/mL,128 µg/mL,2 µg/mL,> 128 µg/mL,8 µg/mL
CC[C@H]1OC(=O)[C@H](C)C(=O)[C@H](C)[C@@H](O[C@@H]2O[C@H](C)C[C@H](N(C)C)[C@H]2O)[C@](C)(OC)C[C@@H](C)C(=O)[C@H](C)[C@@H](OC(=O)NCCNC(=O)/C=C/c2ccccc2Cl)[C@]1(C)O,128 µg/mL,> 128 µg/mL,2 µg/mL,128 µg/mL,32 µg/mL,4 µg/mL,> 128 µg/mL,2 µg/mL,128 µg/mL,32 µg/mL
CC[C@H]1OC(=O)[C@H](C)C(=O)[C@H](C)[C@@H](O[C@@H]2O[C@H](C)C[C@H](N(C)C)[C@H]2O)[C@](C)(OC)C[C@@H](C)C(=O)[C@H](C)[C@@H](OC(=O)NCCNC(=O)/C=C/c2ccc(C)cc2)[C@]1(C)O,64 µg/mL,> 128 µg/mL,4 µg/mL,128 µg/mL,64 µg/mL,8 µg/mL,> 128 µg/mL,4 µg/mL,> 128 µg/mL,64 µg/mL
CC[C@H]1OC(=O)[C@H](C)C(=O)[C@H](C)[C@@H](O[C@@H]2O[C@H](C)C[C@H](N(C)C)[C@H]2O)[C@](C)(OC)C[C@@H](C)C(=O)[C@H](C)[C@@H](OC(=O)NCCNC(=O)c2ccc(C)cc2)[C@]1(C)O,64 µg/mL,> 128 µg/mL,2 µg/mL,128 µg/mL,128 µg/mL,2 µg/mL,> 128 µg/mL,4 µg/mL,> 128 µg/mL,32 µg/mL
CC[C@H]1OC(=O)[C@H](C)C(=O)[C@H](C)[C@@H](O[C@@H]2O[C@H](C)C[C@H](N(C)C)[C@H]2O)[C@](C)(OC)C[C@@H](C)C(=O)[C@H](C)[C@@H](OC(=O)NCCNC(=O)c2ccccc2)[C@]1(C)O,128 µg/mL,> 128 µg/mL,4 µg/mL,128 µg/mL,128 µg/mL,4 µg/mL,> 128 µg/mL,4 µg/mL,> 128 µg/mL,64 µg/mL
CC[C@H]1OC(=O)[C@H](C)C(=O)[C@H](C)[C@@H](O[C@@H]2O[C@H](C)C[C@H](N(C)C)[C@H]2O)[C@](C)(OC)C[C@@H](C)C(=O)[C@H](C)[C@@H](OC(=O)NCCNC(=O)c2ccc(F)cc2)[C@]1(C)O,64 µg/mL,> 128 µg/mL,2 µg/mL,128 µg/mL,128 µg/mL,1 µg/mL,128 µg/mL,2 µg/mL,> 128 µg/mL,32 µg/mL
CC[C@H]1OC(=O)[C@H](C)C(=O)[C@H](C)[C@@H](O[C@@H]2O[C@H](C)C[C@H](N(C)C)[C@H]2O)[C@](C)(OC)C[C@@H](C)C(=O)[C@H](C)[C@@H](OC(=O)NCCNC(=O)c2ccc([N+](=O)[O-])cc2)[C@]1(C)O,64 µg/mL,> 128 µg/mL,1 µg/mL,128 µg/mL,128 µg/mL,1 µg/mL,128 µg/mL,0.25 µg/mL,> 128 µg/mL,16 µg/mL
CC[C@H]1OC(=O)[C@H](C)C(=O)[C@H](C)[C@@H](O[C@@H]2O[C@H](C)C[C@H](N(C)C)[C@H]2O)[C@](C)(OC)C[C@@H](C)C(=O)[C@H](C)[C@@H](OC(=O)NCCNC(=O)c2ccccc2O)[C@]1(C)O,64 µg/mL,> 128 µg/mL,4 µg/mL,128 µg/mL,128 µg/mL,8 µg/mL,128 µg/mL,4 µg/mL,> 128 µg/mL,32 µg/mL
CC[C@H]1OC(=O)[C@H](C)C(=O)[C@H](C)[C@@H](O[C@@H]2O[C@H](C)C[C@H](N(C)C)[C@H]2O)[C@](C)(OC)C[C@@H](C)C(=O)[C@H](C)[C@@H](OC(=O)NCCNC(=O)c2cccc(O)c2)[C@]1(C)O,64 µg/mL,> 128 µg/mL,16 µg/mL,128 µg/mL,128 µg/mL,16 µg/mL,> 128 µg/mL,2 µg/mL,> 128 µg/mL,128 µg/mL
